Laboratory results taken from US10323038B2, “Pyrazole compounds and methods of making and using same” (ABIDE THERAPEUTICS, INC., priority 2015, dated 2019).

Legend:
MAGL = MAGL (Mus musculus (Mouse), UniProt O35678); experiment: In vitro competitive activity-based protein profiling, MAGL (mouse); format: biochemical; details: for inhibition at 1 µM: read-out: MAGL % inh. 1 μM (mouse)
Protocol: (§1) In Vitro Competitive Activity-Based Protein Profiling.
(§2) Proteomes (mouse brain membrane fraction or cell lysates for mouse assays; human prefrontal cortex or cell membrane fractions for human assays) (50 μL, 1.0 mg/mL total protein concentration) were preincubated with varying concentrations of inhibitors at 37° C. After 30 min, FP—Rh or HT-01 (1.0 μL, 50 μM in DMSO) was added and the mixture was incubated for another 30 min at 37° C. Reactions were quenched with SDS loading buffer (15 μL-4×) and run on SDS-PAGE. Following gel imaging, serine hydrolase activity was determined by measuring fluorescent intensity of gel bands corresponding to MAGL and FAAH using ImageJ 1.43u software.

FAAH = FAAH (Mus musculus (Mouse), UniProt O08914); experiment: In vitro competitive activity-based protein profiling, FAAH (mouse); format: biochemical; details: for inhibition at 1 µM: read-out: FAAH % inh. 1 μM (mouse)
FAAH, sequence (O08914 whole entry): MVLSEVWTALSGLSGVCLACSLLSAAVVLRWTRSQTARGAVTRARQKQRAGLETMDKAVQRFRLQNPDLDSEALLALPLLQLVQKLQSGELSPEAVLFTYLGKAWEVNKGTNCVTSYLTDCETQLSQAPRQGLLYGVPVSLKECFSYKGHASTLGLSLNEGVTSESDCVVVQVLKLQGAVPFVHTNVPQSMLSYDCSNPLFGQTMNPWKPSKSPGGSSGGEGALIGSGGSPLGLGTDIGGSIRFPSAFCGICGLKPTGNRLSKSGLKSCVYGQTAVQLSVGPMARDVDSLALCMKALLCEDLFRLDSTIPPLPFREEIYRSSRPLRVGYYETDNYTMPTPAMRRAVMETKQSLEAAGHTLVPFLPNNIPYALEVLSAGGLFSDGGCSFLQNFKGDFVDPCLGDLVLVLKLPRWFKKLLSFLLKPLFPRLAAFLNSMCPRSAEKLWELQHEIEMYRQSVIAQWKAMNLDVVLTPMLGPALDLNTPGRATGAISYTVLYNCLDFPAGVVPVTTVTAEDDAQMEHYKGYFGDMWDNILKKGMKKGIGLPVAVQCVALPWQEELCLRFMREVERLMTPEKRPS
Protocol: as §1, §2

MAGL, sequence (O35678 whole entry): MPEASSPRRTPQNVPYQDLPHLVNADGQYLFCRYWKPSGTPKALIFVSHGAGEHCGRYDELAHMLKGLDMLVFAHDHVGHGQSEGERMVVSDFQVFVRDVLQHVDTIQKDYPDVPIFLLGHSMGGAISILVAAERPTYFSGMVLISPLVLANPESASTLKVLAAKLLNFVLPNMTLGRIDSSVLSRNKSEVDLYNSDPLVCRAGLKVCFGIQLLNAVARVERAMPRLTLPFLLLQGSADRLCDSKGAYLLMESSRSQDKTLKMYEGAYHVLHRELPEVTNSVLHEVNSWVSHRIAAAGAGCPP

Row | Structure (SMILES) | IC50 (MAGL) | inhibition at 1 µM (MAGL) | IC50 (FAAH) | inhibition at 1 µM (FAAH)
1 | CC(=O)N(C)c1cnn(C(=O)N2CCC3(CCN(Cc4cccc(C(F)(F)F)c4)C3)C2)c1 (stereo not drawn) [Example 64, N-methyl-N-(1-(7-(3-(trifluoromethyl)benzyl)-2,7-diazaspiro[4.4]nonane-2-carbonyl)-1H-pyrazol-4-yl)acetamide] | 100 to 1000 nM | ≥ 75% | ≤ 100 nM | ≥ 75%
2 | CC(=O)N(C)c1cnn(C(=O)N2CCC3(CCN(Cc4ccc(N5CCCC5)c(Cl)c4)C3)C2)c1 (stereo not drawn) [Example 67, N-(1-(7-(3-chloro-4-(pyrrolidin-1-yl)benzyl)-2,7-diazaspiro[4.4]nonane-2-carbonyl)-1H-pyrazol-4-yl)-N-methylacetamide] | 100 to 1000 nM | ≥ 75% | ≤ 100 nM | ≥ 75%
3 | CC(=O)N(C)c1cnn(C(=O)N2CCC3(CCN(Cc4cc(N5CCOCC5)cc(C(F)(F)F)c4)C3)C2)c1 (stereo not drawn) [Example 68, N-methyl-N-(1-(7-(3-morpholino-5-(trifluoromethyl)benzyl)-2,7-diazaspiro[4.4]nonane-2-carbonyl)-1H-pyrazol-4-yl)acetamide] | 100 to 1000 nM | ≥ 75% | ≤ 100 nM | ≥ 75%
4 | CC(=O)N(C)c1cnn(C(=O)N2CCC3(CCN(Cc4ccc(N5CCCC5)c(C(F)(F)F)c4)C3)C2)c1 (stereo not drawn) [Example 69, N-methyl-N-(1-(7-(4-(pyrrolidin-1-yl)-3-(trifluoromethyl)benzyl)-2,7-diazaspiro[4.4]nonane-2-carbonyl)-1H-pyrazol-4-yl)acetamide] |  | ≥ 75% |  | ≥ 75%
5 | CC(=O)N(C)c1cnn(C(=O)N2CCC3(CCN(Cc4cc(Cl)ccc4C(F)(F)F)C3)C2)c1 (stereo not drawn) [Example 70, N-(1-(7-(5-chloro-2-(trifluoromethyl)benzyl)-2,7-diazaspiro[4.4]nonane-2-carbonyl)-1H-pyrazol-4-yl)-N-methylacetamide] | ≤ 100 nM | ≥ 75% | ≤ 100 nM | ≥ 75%
6 | CC(=O)N(C)c1cnn(C(=O)N2CCC3(CCN(Cc4cc(C(F)(F)F)ccc4Cl)C3)C2)c1 (stereo not drawn) [Example 71, N-(1-(7-(2-chloro-5-(trifluoromethyl)benzyl)-2,7-diazaspiro[4.4]nonane-2-carbonyl)-1H-pyrazol-4-yl)-N-methylacetamide] |  | ≥ 75% |  | ≥ 75%
7 | CC(=O)N(C)c1cnn(C(=O)N2CCC3(CCN(Cc4cc(C(F)(F)F)ccc4C(F)(F)F)C3)C2)c1 (stereo not drawn) [Example 72, N-(1-(7-(2,5-bis(trifluoromethyl)benzyl)-2,7-diazaspiro[4.4]nonane-2-carbonyl)-1H-pyrazol-4-yl)-N-methylacetamide] |  | ≥ 75% |  | ≥ 75%
8 | CC(=O)N(C)c1cnn(C(=O)N2CCC3(CCN(Cc4cc(N5CCCC5)ccc4C(F)(F)F)C3)C2)c1 (stereo not drawn) [Example 73, N-methyl-N-(1-(7-(5-(pyrrolidin-1-yl)-2-(trifluoromethyl)benzyl)-2,7-diazaspiro[4.4]nonane-2-carbonyl)-1H-pyrazol-4-yl)acetamide] |  | ≥ 75% |  | ≥ 75%
9 | CC(=O)N(C)c1cnn(C(=O)N2CCC3(CCN(Cc4cc(C(F)(F)F)ccc4N4CCCC4)C3)C2)c1 (stereo not drawn) [Example 74, N-methyl-N-(1-(7-(2-(pyrrolidin-1-yl)-5-(trifluoromethyl)benzyl)-2,7-diazaspiro[4.4]nonane-2-carbonyl)-1H-pyrazol-4-yl)acetamide] |  | ≥ 75% |  | 50 to 75%
10 | CC(=O)N(C)c1cnn(C(=O)N2CCC3(CCN(Cc4cccc(Cl)c4)C3)C2)c1 (stereo not drawn) [Example 78, N-(1-(7-(3-chlorobenzyl)-2,7-diazaspiro[4.4]nonane-2-carbonyl)-1H-pyrazol-4-yl)-N-methylacetamide] | 1000 to 10000 nM | 50 to 75% | ≤ 100 nM | ≥ 75%
